Where two headings read alike, the source gives them in different places.
Experiments:
[1] = target: T1, human Bradykinin B1 receptor (Homo sapiens, UniProt P46663); test: Calcium flux Assay (FLIPR) with recombinant CHO-K1 cells expressing human Bradykinin B1 receptor, in presence (hB1 IC50) or absence (hB1 free IC50) of 0.1% BSA; type: cell-based
T1 construct: host or cells: CHO-K1
T1 sequence (P46663 1-353): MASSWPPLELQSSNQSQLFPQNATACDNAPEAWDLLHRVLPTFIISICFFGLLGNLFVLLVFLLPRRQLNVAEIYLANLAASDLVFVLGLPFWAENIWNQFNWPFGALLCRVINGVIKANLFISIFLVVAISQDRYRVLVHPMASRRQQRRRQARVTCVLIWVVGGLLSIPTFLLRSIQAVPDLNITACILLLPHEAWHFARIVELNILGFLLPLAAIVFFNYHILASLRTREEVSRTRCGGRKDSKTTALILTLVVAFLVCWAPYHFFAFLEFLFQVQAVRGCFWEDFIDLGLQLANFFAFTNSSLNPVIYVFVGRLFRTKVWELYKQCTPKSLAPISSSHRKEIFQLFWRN

[2] = target: T2, native human Bradykinin B1 receptor (Homo sapiens, UniProt P46663); test: Calcium flux Assay (FLIPR) with human fibroblasts expressing Bradykinin B1 receptor (hB1 IMR-90); type: cell-based; settings: IMR-90 human fibroblasts expressing native Bradykinin B1 receptor
T2 construct: which express native human Bradykinin B1 receptor after induction with human IL-10; Coriell Institute; host or cells: IMR-90 human foetal lung fibroblasts, cytokine-induced
T2 sequence (P46663 1-353): T1 sequence (P46663 1-353)
Description: Calcium flux Assay (FLIPR) with human fibroblasts expressing Bradykinin B1 receptor (hB1 IMR-90)
The Calcium flux Assay was carried out utilising IMR-90 human foetal lung fibroblasts (American Type Culture Collection, Rockville, Md.; and Coriell Institute, Camden, N.J.), which express native human Bradykinin B1 receptor after induction with human […].
The fibroblasts were cultured in complete growth media comprised of Dulbecco's modified Eagle's medium (DMEM; Sigma) containing 10% foetal bovine serum, 4 mM L-glutamine, and 1% nonessential amino acids. The cells were maintained in a humidified atmosphere with 5% CO2 at 37° C. and were sub-cultured at a ratio of 1:3, every other day.
For the assay, IMR-90 fibroblasts were harvested using TrypLE Express (GIBCO/Invitrogen) and seeded into 384-well plates (Corning Cellbinding Surface, Cat. 3683) at a density of 15000 cells/well. The following day, cells were treated with 0.35 ng/mL human […] in 10% FBS/MEM for 3h to up-regulate Bradykinin B1 receptor. Induced cells were loaded with fluorescent calcium indicator by incubation with 2.5 μM Fluo-4/AM (Invitrogen) at 37° C., 5% CO2 for 2 h in the presence of 2.5 mM probenecid in 1% FBS/MEM. Extracellular dye was removed by washing with assay buffer (2.5 mM probenecid and 0.1% BSA in 20 mM HEPES/HBSS without bicarbonate or phenol red, pH 7.5). Compound examples were assayed at 8 concentrations in triplicate. After addition of compound examples to the cell plate and incubation for 30 min at 28° C., the addition of Bradykinin B1 agonist Lys-(Des-Arg)-Bradykinin (Bachem, Brackley) at a final concentration of EC90 was carried out on the FLIPR instrument while continuously monitoring Ca^2+-dependent fluorescence at 538 nm. A peptide antagonist Lys-(Des-Arg-Leu)-Bradykinin (Bachem, Brackley) at 20 µM was used to determine the full inhibition as control. IC50 values were determined by the same way described for the FLIPR assay with recombinant cells.

[3] = in absence of 0.1% BSA, read-out: hB1 free IC50
[4] = in presence of 0.1% BSA, read-out: hB1 IC50

Row | IC50 [1, 3] | IC50 [1, 4] | IC50 [2] | SMILES
1 | 9.27 nM | 12.5 nM | 6 nM | CCOc1ccc(-c2ccc(NC(=O)C3(c4ccc(Cl)c(F)c4)CC3)cc2-c2nnn[nH]2)cn1 [Example 70, 1-(4-chloro-3-fluorophenyl)-N-[4-(6-ethoxypyridin-3-yl)-3-(1H-tetrazol-5-yl)phenyl] cyclopropane-carboxamide]
2 | 6.82 nM | 15.5 nM | 5.72 nM | CCOc1ccc(-c2ccc(NC(=O)C3(c4ccc(C(F)(F)F)cc4F)CC3)cc2-c2nnn[nH]2)cn1 [Example 72, N-[4-(6-ethoxypyridin-3-yl)-3-(1H-tetrazol-5-yl)phenyl]-1-[2-fluoro-4-(trifluoromethyl)phenyl] cyclopropane-carboxamide]
3 | 13.9 nM | 16.2 nM | 7.98 nM | CCOc1ccc(-c2ccc(NC(=O)C3(c4cccc(Cl)c4F)CC3)cc2-c2nnn[nH]2)cn1 [Example 73, 1-(3-chloro-2-fluorophenyl)-N-[4-(6-ethoxypyridin-3-yl)-3-(1H-tetrazol-5-yl)phenyl] cyclopropane-carboxamide]
4 | 21.2 nM | 24.5 nM | 15.8 nM | CCOc1ccc(-c2ccc(NC(=O)C3(c4cc(Cl)ccc4F)CC3)cc2-c2nnn[nH]2)cn1 [Example 78, 1-(5-chloro-2-fluorophenyl)-N-[4-(6-ethoxypyridin-3-yl)-3-(1H-tetrazol-5-yl)phenyl] cyclopropane-carboxamide]
5 |  | 25.1 nM | 24.7 nM | CCOc1ccc(-c2ccc(NC(=O)C3(c4cccc(F)c4F)CC3)cc2-c2nnn[nH]2)cn1 [Example 79, 1-(2,3-difluorophenyl)-N-[4-(6-ethoxypyridin-3-yl)-3-(1H-tetrazol-5-yl)phenyl] cyclopropane-carboxamide]
6 | 29.6 nM | 25.6 nM | 27.2 nM | CCOc1ccc(-c2ccc(NC(=O)C3(c4cccc(F)c4)CC3)cc2-c2nnn[nH]2)cn1 [Example 80, N-[4-(6-ethoxypyridin-3-yl)-3-(1H-tetrazol-5-yl)phenyl]-1-(3-fluorophenyl) cyclopropane-carboxamide]
7 | 29.1 nM | 27.5 nM | 21.2 nM | CCOc1ccc(-c2ccc(NC(=O)C3(c4ccc(F)cc4)CC3)cc2-c2nnn[nH]2)cn1 [Example 81, N-[4-(6-ethoxypyridin-3-yl)-3-(1H-tetrazol-5-yl)phenyl]-1-(4-fluorophenyl) cyclopropane-carboxamide]
8 | 29.1 nM | 33.3 nM | 14.9 nM | CCOc1ccc(-c2ccc(NC(=O)C3(c4ccc(F)c(F)c4)CC3)cc2-c2nnn[nH]2)cn1 [Example 82, 1-(3,4-difluorophenyl)-N-[4-(6-ethoxypyridin-3-yl)-3-(1H-tetrazol-5-yl)phenyl] cyclopropane-carboxamide]
9 | 60.5 nM | 37.5 nM | 33 nM | CCOc1ccc(-c2ccc(NC(=O)C3(c4cc(F)ccc4F)CC3)cc2-c2nnn[nH]2)cn1 [Example 83, 1-(2,5-difluorophenyl)-N-[4-(6-ethoxypyridin-3-yl)-3-(1H-tetrazol-5-yl)phenyl] cyclopropane-carboxamide]
10 | 37.7 nM | 39.8 nM | 25.3 nM | CCOc1ccc(-c2ccc(NC(=O)C3(c4ccccc4F)CC3)cc2-c2nnn[nH]2)cn1 [Example 92, N-[4-(6-ethoxypyridin-3-yl)-3-(1H-tetrazol-5-yl)phenyl]-1-(2-fluorophenyl) cyclopropane-carboxamide]

Second part, the compound before the results:

Row | SMILES | IC50 [1, 3] | IC50 [1, 4] | IC50 [2]
11 | COc1ccc(-c2ccc(NC(=O)C3(c4ccc(Cl)cn4)CC3)cc2-c2nnn[nH]2)cc1OC [Example 23, 1-(5-chloropyridin-2-yl)-N-[3′,4′-dimethoxy-2-(1H-tetrazol-5-yl)biphenyl-4-yl]cyclopropane carboxamide] | 145 nM | 176 nM | 35.2 nM
12 | COc1ccc(-c2ccc(NC(=O)C3(c4ccccc4Cl)CC3)cc2-c2nnn[nH]2)cc1OC [Example 36, 1-(2-chlorophenyl)-N-[3′,4′-dimethoxy-2-(1H-tetrazol-5-yl)biphenyl-4-yl]cyclopropane carboxamide] |  | 128 nM | 104 nM
13 | COc1ccc(-c2ccc(NC(=O)C3(c4ccc(C(F)(F)F)cc4)CC3)cc2-c2nnn[nH]2)cc1OC [Example 44, N-[3′,4′-dimethoxy-2-(1H-tetrazol-5-yl)biphenyl-4-yl]-1-[4-(trifluoromethyl)phenyl] cyclopropane-carboxamide] | 5.7 nM | 23 nM | 5.47 nM
14 | COc1ccc(-c2ccc(NC(=O)C3(c4ccc(F)c(C)c4)CC3)cc2-c2nnn[nH]2)cc1OC [Example 48, N-[3′,4′-dimethoxy-2-(1H-tetrazol-5-yl)biphenyl-4-yl]-1-(4-fluoro-3-methylphenyl) cyclopropane-carboxamide] |  | 50.5 nM | 29.3 nM
15 | COc1ccc(-c2ccc(NC(=O)C3(C4CCC(C)(C)CC4)CC3)cc2-c2nnn[nH]2)cc1OC [Example 56, N-[3′,4′-dimethoxy-2-(1H-tetrazol-5-yl)biphenyl-4-yl]-1-(4,4-dimethyl-cyclohexyl) cyclopropane-carboxamide] | 15.3 nM | 21.7 nM | 20.2 nM
16 | CCOc1ccc(-c2ccc(NC(=O)C3(c4cc(F)cc(Cl)c4)CC3)cc2-c2nnn[nH]2)cn1 [Example 77, 1-(3-chloro-5-fluorophenyl)-N-[4-(6-ethoxypyridin-3 yl)-3-(1H-tetrazol-5-yl)phenyl] cyclopropane-carboxamide] | 16.1 nM | 24 nM | 21.7 nM
17 | CCOc1ccc(-c2ccc(NC(=O)C3(c4ccc(OC)c(F)c4)CC3)cc2-c2nnn[nH]2)cn1 [Example 86, N-[4-(6-ethoxypyridin-3-yl)-3-(1H-tetrazol-5-yl)phenyl]-1-(3-fluoro-4-methoxyphenyl) cyclopropane-carboxamide] | 40.3 nM | 92.5 nM | 27.4 nM
18 | CCOc1ccc(-c2ccc(NC(=O)C3(C(F)(F)F)CC3)cc2-c2nnn[nH]2)cn1 [Example 91, N-[4-(6-ethoxypyridin-3-yl)-3-(1H-tetrazol-5-yl)phenyl]-1-(trifluoromethyl) cyclopropane-carboxamide] | 452 nM | 174 nM | 161 nM
19 | CCOc1ccc(-c2ccc(NC(=O)C3(c4cccc(C)c4)CC3)cc2-c2nnn[nH]2)cn1 [Example 94, N-[4-(6-ethoxypyridin-3-yl)-3-(1H-tetrazol-5-yl)phenyl]-1-(3-methylphenyl) cyclopropane-carboxamide] |  | 23.8 nM | 25.1 nM
20 | CCCc1cccc(C2(C(=O)Nc3ccc(-c4ccc(OCC)nc4)c(-c4nnn[nH]4)c3)CC2)c1 [Example 96, N-[4-(6-ethoxypyridin-3-yl)-3-(1H-tetrazol-5-yl)phenyl]-1-(3-propylphenyl) cyclopropane-carboxamide] | 5.32 nM | 6.58 nM | 15.3 nM
21 | CCOc1ccc(-c2ccc(NC(=O)C3(c4cccc(C(C)(C)C)c4)CC3)cc2-c2nnn[nH]2)cn1 [Example 97, 1-(3-tert-butylphenyl)-N-[4-(6-ethoxypyridin-3-yl)-3-(1H-tetrazol-5-yl)phenyl] cyclopropane-carboxamide] |  | 138 nM | 101 nM
22 | CCOc1ccc(-c2ccc(NC(=O)C3(c4cccc(C(F)(F)F)c4)CC3)cc2-c2nnn[nH]2)cn1 [Example 98, N-[4-(6-ethoxypyridin-3-yl)-3-(1H-tetrazol-5-yl)phenyl]-1-[3-(trifluoromethyl)phenyl] cyclopropane-carboxamide] |  | 8.67 nM | 5.78 nM
23 | CCOc1ccc(-c2ccc(NC(=O)C3(c4ccc(C)cc4)CC3)cc2-c2nnn[nH]2)cn1 [Example 99, N-[4-(6-ethoxypyridin-3-yl)-3-(1H-tetrazol-5-yl)phenyl]-1-(4-methylphenyl) cyclopropane-carboxamide] |  | 24 nM | 11.8 nM
